The text below walks through data of patent publication US20240270762A1, “PENICILLIN-BINDING PROTEIN INHIBITORS” (priority 2021, published 2024).

Values after ≈ are worked out from the molar mass of the structure shown. Where two headings read alike, the source gives them in different places.

For one test, the system named is A. baumannii CDC-0033. In words: microbe, parasite or virus in culture. The format is cell-based. The following applies: Acinetobacter baumannii.
A further test concerns the target A. baumannii PBP2 (Acinetobacter baumannii, UniProt D0C8Z9). In words: Bocillin-FL competition binding via gel filtration, A. baumannii PBP2. The gist of the method:
(§1)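 Enzyme was pre-incubated with rising inhibitor concentrations, then Bocillin-FL was added and incubated 15 minutes more. Bound probe was separated by gel filtration and fluorescence read. EC50 came from fitting fraction of PBP labelled versus inhibitor concentration to a Hill equation with ymin, ymax and n.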
(SEC sorts molecules by how far they enter the pores of the column.)

The next test has as its system P. aeruginosa ATCC 35151. As to the kind of experiment: microbe, parasite or virus in culture. In kind it is cell-based. The following applies: Pseudomonas aeruginosa, ATCC35151, read-out: Minimum inhibitory concentration, P. aeruginosa ATCC 35151.
A further test deals with A. baumannii CDC-0045. In words: microbe, parasite or virus in culture. The format is cell-based. The following applies: Acinetobacter baumannii.
The next test concerns A. baumannii ATCC 19606. In words: microbe, parasite or virus in culture. In kind it is cell-based. The conditions noted are these: Acinetobacter baumannii.
In another test the test system is A. baumannii CDC-0036. As to the kind of experiment: microbe, parasite or virus in culture. In kind it is cell-based. The following applies: Acinetobacter baumannii.
The target in another test is T1, A. baumannii PBP1a (Acinetobacter baumannii, UniProt A0ABX6CK30).
T1 sequence (A0ABX6CK30 1-851): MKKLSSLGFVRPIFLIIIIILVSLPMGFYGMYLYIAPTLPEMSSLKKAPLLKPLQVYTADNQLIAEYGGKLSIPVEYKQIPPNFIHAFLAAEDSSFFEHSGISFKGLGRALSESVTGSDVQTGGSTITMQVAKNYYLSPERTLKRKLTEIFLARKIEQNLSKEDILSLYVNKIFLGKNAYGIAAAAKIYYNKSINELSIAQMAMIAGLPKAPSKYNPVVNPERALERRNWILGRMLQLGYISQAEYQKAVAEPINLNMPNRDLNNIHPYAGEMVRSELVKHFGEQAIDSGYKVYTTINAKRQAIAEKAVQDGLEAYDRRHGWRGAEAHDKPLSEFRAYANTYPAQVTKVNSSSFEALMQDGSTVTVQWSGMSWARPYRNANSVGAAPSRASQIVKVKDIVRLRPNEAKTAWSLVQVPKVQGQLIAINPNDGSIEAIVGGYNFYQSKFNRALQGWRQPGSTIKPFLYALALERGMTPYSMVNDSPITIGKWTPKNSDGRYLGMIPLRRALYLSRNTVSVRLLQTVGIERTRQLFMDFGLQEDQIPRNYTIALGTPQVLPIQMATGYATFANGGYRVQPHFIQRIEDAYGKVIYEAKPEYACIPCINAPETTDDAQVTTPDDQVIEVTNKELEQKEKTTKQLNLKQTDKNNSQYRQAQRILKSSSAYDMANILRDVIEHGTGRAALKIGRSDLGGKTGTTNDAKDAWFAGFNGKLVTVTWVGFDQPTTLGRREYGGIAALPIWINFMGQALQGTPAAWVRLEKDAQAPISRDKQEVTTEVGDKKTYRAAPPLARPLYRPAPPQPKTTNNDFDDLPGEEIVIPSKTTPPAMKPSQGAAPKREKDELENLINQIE
In words: Bocillin-FL competition binding via gel filtration, A. baumannii PBP1a. The conditions noted are these: competition binding assay using Bocillin-FL via gel filtration; read-out: A. baumannii PBP1a Potency. The gist of the method: as §1

In test [1] the test system is B. humptydooensis ATCC BAA-2767. In words: microbe, parasite or virus in culture. In kind it is cell-based. The conditions noted are these: Burkholderia humptydooensis, ATCCBAA2767, read-out: Minimum inhibitory concentration (MIC), B. humptydooensis ATCC BAA-2767.
For the next test, the system named is P. aeruginosa ATCC 27853. As to the kind of experiment: microbe, parasite or virus in culture. The format is cell-based. The following applies: Pseudomonas aeruginosa, ATCC27853, read-out: Minimum inhibitory concentration, P. aeruginosa ATCC 27853.
[2] abbreviates: CDC0033, read-out: MIC, A. baumannii CDC-0033.
The mark [3] stands for this setting: CDC0045, read-out: MIC, A. baumannii CDC-0045.
[4] abbreviates: ATCC19606, read-out: MIC, A. baumannii ATCC 19606.
[5] abbreviates: CDC0036, read-out: MIC, A. baumannii CDC-0036.
[6] abbreviates: CDC0033, read-out: Minimum inhibitory concentration (MIC), A. baumannii CDC-0033.
[7] abbreviates: CDC0045, read-out: Minimum inhibitory concentration (MIC), A. baumannii CDC-0045.
Setting [8] is: ATCC19606, read-out: Minimum inhibitory concentration (MIC), A. baumannii ATCC 19606.
Setting [9] is: CDC0036, read-out: Minimum inhibitory concentration (MIC), A. baumannii CDC-0036.

A. baumannii PBP2, sequence (D0C8Z9 whole entry): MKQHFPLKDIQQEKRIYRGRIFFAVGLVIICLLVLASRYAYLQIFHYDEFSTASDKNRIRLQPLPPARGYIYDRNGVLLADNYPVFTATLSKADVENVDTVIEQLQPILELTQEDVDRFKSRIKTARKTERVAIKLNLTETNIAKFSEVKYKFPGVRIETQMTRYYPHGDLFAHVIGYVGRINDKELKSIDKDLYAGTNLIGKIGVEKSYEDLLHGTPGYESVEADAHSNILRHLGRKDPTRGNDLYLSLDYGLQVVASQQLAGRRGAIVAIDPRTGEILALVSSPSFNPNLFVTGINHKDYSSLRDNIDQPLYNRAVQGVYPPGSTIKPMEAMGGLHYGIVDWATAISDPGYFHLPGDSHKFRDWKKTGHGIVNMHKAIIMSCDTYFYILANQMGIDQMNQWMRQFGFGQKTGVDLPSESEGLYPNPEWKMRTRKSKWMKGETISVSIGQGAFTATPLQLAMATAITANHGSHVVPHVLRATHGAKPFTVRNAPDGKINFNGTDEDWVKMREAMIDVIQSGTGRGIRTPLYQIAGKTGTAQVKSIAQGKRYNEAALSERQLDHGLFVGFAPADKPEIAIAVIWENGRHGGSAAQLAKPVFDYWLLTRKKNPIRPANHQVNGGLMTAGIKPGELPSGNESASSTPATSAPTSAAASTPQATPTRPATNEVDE

As for `O=C(O)c1c(F)ccc2c1OB(O)[C@@H](NC(=O)[C@H](NC(=O)N1CCN(Cc3ccc(O)c(O)c3Cl)C(=O)C1=O)c1ccc(P(=O)(O)O)cc1)C2` (single isomer, unassigned) [Example 160], the MIC (with A. baumannii CDC-0033 (setting [2]); with P. aeruginosa ATCC 35151; with A. baumannii CDC-0045 (setting [3]); in the test with A. baumannii ATCC 19606 (setting [4]); in the test on A. baumannii CDC-0036 (setting [5]); in test [1]) was under 1 µg/mL throughout. Moreover, in the test on P. aeruginosa ATCC 27853, the MIC is under 1 µg/mL. Besides, the EC50 at A. baumannii PBP2 and on A. baumannii PBP1a was under 10 µM throughout.
As to `O=C(NCCCS(=O)(=O)N1CCN(C(=O)N[C@H](C(=O)N[C@H]2Cc3ccc(F)c(C(=O)O)c3OB2O)c2ccc(P(=O)(O)O)cc2)C1=O)c1ccc(O)c(O)c1Cl` (single isomer, unassigned) [Example 169], the MIC (with A. baumannii CDC-0033 (setting [2]); in the test on P. aeruginosa ATCC 35151; in the test with A. baumannii CDC-0045 (setting [3]); in the test with A. baumannii ATCC 19606 (setting [4]); in the test on A. baumannii CDC-0036 (setting [5]); in test [1]) was over 128 µg/mL in each case. The MIC in the test on P. aeruginosa ATCC 27853 is over 128 µg/mL. The same compound returned an EC50 on A. baumannii PBP2 of 50 to 250 µM.
As for `O=C(O)c1c(F)ccc2c1OB(O)[C@@H](NC(=O)[C@@H](NC(=O)N1CCN(C3CCN(C(=O)c4ccc(O)cc4)CC3)C1=O)c1cc(F)c(O)c(O)c1Cl)C2` (single isomer, unassigned) [Example 462], the MIC is 32 to 64 µg/mL (≈ 42.2 to 84.4 µM) in the test with A. baumannii CDC-0033 (setting [2]); under 1 µg/mL with P. aeruginosa ATCC 35151; 32 to 64 µg/mL (≈ 42.2 to 84.4 µM) with A. baumannii CDC-0045 (setting [3]); 8 to 16 µg/mL (≈ 10.6 to 21.1 µM) in the test with A. baumannii ATCC 19606 (setting [4]); 32 to 64 µg/mL (≈ 42.2 to 84.4 µM) with A. baumannii CDC-0036 (setting [5]); over 128 µg/mL in test [1]. Moreover, the MIC in the test with P. aeruginosa ATCC 27853 fell in the range of 2 to 4 µg/mL (≈ 2.64 to 5.28 µM). In addition, the EC50 on A. baumannii PBP1a was under 10 µM.
As to `O=C(O)c1c(F)ccc2c1OB(O)[C@@H](NC(=O)C(NC(=O)N1CCN(C3CCN(C(=O)Nc4ccc(F)c(O)c4F)CC3)C1=O)c1cc(F)c(O)c(O)c1Cl)C2` (stereo partly drawn) [Example 452, (3R)-3-(2-(2-chloro-5-fluoro-3,4-dihydroxyphenyl)-2-(3-(1-((2,4-difluoro-3-hydroxyphenyl)carbamoyl)piperidin-4-yl)-2-oxoimidazolidine-1-carboxamido)acetamido)-7-fluoro-2-hydroxy-3,4-dihydro-2H-benzo[e][1,2]oxaborinine-8-carboxylic acid], the MIC was 2 to 4 µg/mL (≈ 2.47 to 4.95 µM) in the test with A. baumannii CDC-0033 (setting [2]); under 1 µg/mL in the test with P. aeruginosa ATCC 35151; under 1 µg/mL with A. baumannii CDC-0045 (setting [3]); under 1 µg/mL with A. baumannii ATCC 19606 (setting [4]); 2 to 4 µg/mL (≈ 2.47 to 4.95 µM) with A. baumannii CDC-0036 (setting [5]); 2 to 4 µg/mL (≈ 2.47 to 4.95 µM) in the test on P. aeruginosa ATCC 27853. For the same compound, the EC50 on A. baumannii PBP2 was under 10 µM; at A. baumannii PBP1a, 10 to 50 µM.
Regarding `O=C(O)c1c(F)ccc2c1OB(O)[C@@H](NC(=O)[C@H](NC(=O)N1CCN(S(=O)(=O)c3ccc(O)c(O)c3Cl)C1=O)c1ccc(P(=O)(O)O)cc1)C2` [Example 506, (R)-3-((R)-2-(3-((2-chloro-3,4-dihydroxyphenyl)sulfonyl)-2-oxoimidazolidine-1-carboxamido)-2-(4-phosphonophenyl)acetamido)-7-fluoro-2-hydroxy-3,4-dihydro-2H-benzo[e][1,2]oxaborinine-8-carboxylic acid], the MIC (in the test with A. baumannii CDC-0033 (setting [6]); in the test on P. aeruginosa ATCC 35151; with A. baumannii CDC-0045 (setting [7]); with A. baumannii ATCC 19606 (setting [8]); in the test on A. baumannii CDC-0036 (setting [9]); in test [1]) was under 1 µg/mL each time. For the same compound, the MIC in the test on P. aeruginosa ATCC 27853 was under 1 µg/mL.
Regarding `O=C(O)c1cccc2c1OB(O)[C@@H](NC(=O)[C@H](NC(=O)N1CCN(S(=O)(=O)c3ccc(O)c(O)c3Cl)C1=O)c1ccc(P(=O)(O)O)cc1)C2` [Example 509, (R)-3-((R)-2-(3-((2-chloro-3,4-dihydroxyphenyl)sulfonyl)-2-oxoimidazolidine-1-carboxamido)-2-(4-phosphonophenyl)acetamido)-2-hydroxy-3,4-dihydro-2H-benzo[e][1,2]oxaborinine-8-carboxylic acid], the MIC (in the test with A. baumannii CDC-0033 (setting [6]); in the test on P. aeruginosa ATCC 35151; with A. baumannii CDC-0045 (setting [7]); in the test with A. baumannii ATCC 19606 (setting [8]); in the test with A. baumannii CDC-0036 (setting [9]); in test [1]) was under 1 µg/mL each time. Also, the MIC with P. aeruginosa ATCC 27853 is under 1 µg/mL.
